# In publication PMC3749181, “Rapid Identification of Antifungal Compounds against Exserohilum rostratum Using High Throughput Drug Repurposing Screens” (PLoS ONE, 2013):
# pIC50: −log10 of the molar value. Values joined by “and” are separate entries in the source; they are usually repeats but may differ in a detail not shown here. Identical values can stand only once. Like-named read-outs stand apart in the source and are kept apart here.
# How the values were obtained:
# [1] = test system: E. rostratum hyphal fragments; assay: hyphal fragment fungicidal ATP content assay (PBS, 1536-well); type: cell-based, Exserohilum rostratum; conditions: Exserohilum rostratum; for Emax: 46 µM Amphotericin B = 100%
# Outline: (§1)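 Hyphal fragments (15,000/well in PBS, batch-normalized by carbohydrate OD490) or conidia (250/well in RPMI) were exposed to compound at 46 µM in the primary screen for 24 h at 30 °C. Viability was read as ATPLite luminescence after 15 min at RT and scaled between DMSO (100%) and 46 µM amphotericin B (0%).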
# [2] = test system: E. rostratum conidia; assay: conidia growth inhibition ATP content assay (RPMI, 1536-well); type: cell-based, Exserohilum rostratum; conditions: for Emax: 46 µM Amphotericin B = 100%
# Outline: as §1
# [3] = test system: SH-SY5Y cells; assay: SH-SY5Y cytotoxicity counter-screen (ATP content assay); type: cell-based, Human; conditions: for SH-SY5Y % Max. Resp.: Table 2, SH-SY5Y, inact. = no significant activity at 46 µM; for cytotoxicity in SH-SY5Y mammalian cells: concentration up to 46 µM
# Outline: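 SH-SY5Y human neuroblastoma cells grown in DMEM/F-12 with 10% FBS at 37 °C, 5% CO2. Viability counter-screen measured cellular ATP by luciferase luminescence (ATPLite) in 1536-well format.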
# [4] = test system: E. rostratum hyphal fragments; assay: colony formation assay of hyphal fragments; type: cell-based, Exserohilum rostratum; conditions: 2 times respective IC50, 37°C, 24 h; p<0.01
# Description: 10 µl of hyphal suspension (processed as described above) was transferred to 1.7 mL microfuge tubes, each containing 28 nM amphotericin B, 242 nM posaconazole, or 10% DMSO in 1 ml PBS. Tubes containing hyphae and drug were incubated at 37°C in a shaking incubator for 24 h, then 200 µl of the hyphae drug suspension was spread on Yeast Extract Peptone Dextrose (YPD) plates for 24 h at 30°C and the number of colony forming units were scored. The experiments were performed in triplicate.
# Mixtures were cultured at 37°C in a shaking incubator for 24 h, then the hyphal suspensions were inoculated on Yeast Extract Peptone Dextrose (YPD) plates that were incubated for 1 day. The number of colonies on each YPD plate was counted.
# [5] = test system: E. rostratum; parameters: method as in earlier work; conditions: filamentous fungi M38-A2, this isolate; cited from earlier work
# [6] = test system: E. rostratum; assay: drug repurposing screen against E. rostratum; type: cell-based, Exserohilum rostratum; conditions: in our experiments
# Description: The library of pharmacologically active compounds (LOPAC) consists of 1280 small molecules with characterized biological activities. The LOPAC library (Sigma-Aldrich) has been extensively used for HTS assay validations, [18]. The NIH Chemical Genomics Center Pharmaceutical (NPC) collection was constructed in-house through a combined effort of compound purchasing and custom synthesis and recently expanded to 4096 compounds. In this drug libarary, 52% of which are drugs approved for human or animal use by the United States Food and Drug Administration (FDA), 22% are drugs approved in Europe, Canada, or Japan, and the remaining 25% are compounds that have entered clinical trials or are research compounds commonly used in biomedical research. […] 2.5 µl/well PBS was dispensed into 1536-well plates using a Multidrop-Combi dispenser. Compound in DMSO solution was transferred in a volume of 23 nl/well using a NX-TR pintool station (WAKO Scientific Solutions, San Diego, CA). This additional PBS step for compound addition was designed to prevent the potential fungal contamination of compound libraries. The hyphal fragments in PBS were then added at 2.5 µl/well for a final seeding density of 15,000 hyphal fragments/well using the Multidrop-Combi dispenser. The final compound concentration was 46 µM in the primary screen. […]
# [7] = parameters: method as in PMID 12445558; conditions: 8 hours after intravenous (iv) administration of 20 mg/kg; cited from earlier work
# [8] = Table 2, inact. = no significant activity in the primary screen, read-out: Hyphae % Max. Resp.
# [9] = Table 2, 24 h, inact. = no significant activity in the primary screen, read-out: Hyphae IC50
# [10] = Exserohilum rostratum, 24 h, Table 2, 24 h, inact. = no significant activity at the highest compound concentration (46 µM), read-out: Conidia IC50
# [11] = Exserohilum rostratum, Table 2, inact. = no significant activity at 46 µM, read-out: Conidia % Max. Resp.
# [12] = Figure 5, read-out: IC50 Hyphae
# [13] = Exserohilum rostratum, Figure 5, read-out: IC50 Conidia
smiles,measurement,setting,value
C[C@@H]1[C@H](O)[C@@H](C)/C=C/C=C/C=C/C=C/C=C/C=C/C=C/[C@H](O[C@@H]2O[C@H](C)[C@@H](O)[C@H](N)[C@@H]2O)C[C@@H]2O[C@](O)(C[C@@H](O)C[C@@H](O)[C@H](O)CC[C@@H](O)C[C@@H](O)CC(=O)O[C@H]1C)C[C@H](O)[C@H]2C(=O)O [Amphotericin B],pIC50,"[1]; 15000 fragments/well, read-out: hyphae IC50",7.91
same,Emax,[1]; [8],84%
same,pIC50,[1]; [9],7.85
same,Emax,"[1]; Table S1, Inact. = no significant activity in the primary screen, read-out: Hyphae % M. Res.",84%
same,pIC50,"[2]; 250 conidia/well, read-out: conidia IC50",8.01
same,pIC50,[2]; [10],7.92
same,pIC50,"[2]; Exserohilum rostratum, Table S1, Inact. = no significant activity at the highest compound concentration (46 µM), read-out: Conidia IC50",6.09
same,pIC50,"[2]; Exserohilum rostratum, 250 conidia/well, read-out: conidia IC50",8.03
same,Emax,[2]; [11],104%
same,Emax,"[2]; Exserohilum rostratum, Table S1, Inact. = no significant activity at 46 µM, read-out: Conidia % M. Res.",104%
same,SH-SY5Y % Max. Resp.,[3]; 46 µM Amphotericin B = 100%,inact.
same,SH-SY5Y % Max. Resp.,[3],inact.
same,SH-SY5Y % M. Res.,"[3]; Table S1, 46 µM Amphotericin B = 100%, Inact. = no significant activity at 46 µM",Inact.
same,SH-SY5Y IC50,"[3]; Table S1, Inact. = no significant activity at the highest compound concentration (46 µM)",Inact.
same,hyphae-derived colony forming units (CFU) compared to DMSO control,[4],significantly reduced
same,value determined from the microdilution method,[5],60 nM
N#C/C(=C1/SCC(c2ccccc2Cl)S1)n1ccnc1 (stereo not drawn) [Lanoconazole],pIC50,[1]; [12],6.34
same,Emax,[1]; [8],65%
same,pIC50,[1]; [9],6.69
same,pIC50,[2]; [10],6.42
same,pIC50,[2]; [13],6.09
same,Emax,[2]; [11],103%
same,SH-SY5Y % Max. Resp.,[3]; 46 µM Amphotericin B = 100%,inact.
same,SH-SY5Y % Max. Resp.,[3],inact.
same,cytotoxicity in SH-SY5Y mammalian cells,[3],no significant cytotoxicity
same,hyphae-derived colony forming units (CFU) compared to DMSO control,[4],significantly reduced
C[C@@H](c1ncncc1F)[C@](O)(Cn1cncn1)c1ccc(F)cc1F [Voriconazole],pIC50,[1]; [12],5.55
same,Emax,[1]; [8],94%
same,pIC50,[1]; [9],5.59
same,pIC50,[1]; read-out: hyphae IC50,5.58
same,pIC50,[2]; [10],5.54
same,pIC50,[2]; [13],5.43
same,Emax,[2]; [11],101%
same,pIC50,"[2]; Exserohilum rostratum, read-out: conidia IC50",5.54
same,SH-SY5Y % Max. Resp.,[3]; 46 µM Amphotericin B = 100%,inact.
same,SH-SY5Y % Max. Resp.,[3],inact.
same,cytotoxicity in SH-SY5Y mammalian cells,[3],no significant cytotoxicity
same,hyphae-derived colony forming units (CFU) compared to DMSO control,[4],significantly reduced
same,value determined from the microdilution method,[5],2 µg/ml and 5.7 µM
CCCSc1ccc2nc(NC(=O)OC)[nH]c2c1 [albendazole],activity against E. rostratum,[6],not active
O=c1[nH]c(=O)n([C@H]2C[C@H](O)[C@@H](CO)O2)cc1F [Floxuridine],Emax,[1]; [8],77%
same,pIC50,[1]; [9],6.07
same,pIC50,[2]; [10],6.54
same,Emax,[2]; [11],29%
same,SH-SY5Y % Max. Resp.,[3]; 46 µM Amphotericin B = 100%,inact.
same,SH-SY5Y % Max. Resp.,[3],inact.
same,hyphae-derived colony forming units (CFU) compared to DMSO control,[4],significantly reduced
same,brain concentrations,[7],above 600 nM
CCC(C)n1ncn(-c2ccc(N3CCN(c4ccc(OCC5COC(Cn6cncn6)(c6ccc(Cl)cc6Cl)O5)cc4)CC3)cc2)c1=O (stereo not drawn) [Itraconazole],pIC50,[1]; [12],5.71
same,Emax,[1]; [8],80%
same,pIC50,[1]; [9],5.66
same,pIC50,[2]; [10],5.91
same,pIC50,[2]; [13],5.90
same,Emax,[2]; [11],100%
same,SH-SY5Y % Max. Resp.,[3]; 46 µM Amphotericin B = 100%,inact.
same,SH-SY5Y % Max. Resp.,[3],inact.
same,cytotoxicity in SH-SY5Y mammalian cells,[3],no significant cytotoxicity
same,hyphae-derived colony forming units (CFU) compared to DMSO control,[4],significantly reduced
CC[C@@H]([C@H](C)O)n1ncn(-c2ccc(N3CCN(c4ccc(OC[C@@H]5CO[C@@](Cn6cncn6)(c6ccc(F)cc6F)C5)cc4)CC3)cc2)c1=O [Posaconazole],pIC50,[1]; [12],6.79
same,Emax,[1]; [8],78%
same,pIC50,[1]; [9],6.92
same,pIC50,[2]; [10],7.01
same,pIC50,[2]; [13],7.10
same,Emax,[2]; [11],106%
same,SH-SY5Y % Max. Resp.,[3]; 46 µM Amphotericin B = 100%,inact.
same,SH-SY5Y % Max. Resp.,[3],inact.
same,cytotoxicity in SH-SY5Y mammalian cells,[3],no significant cytotoxicity
same,hyphae-derived colony forming units (CFU) compared to DMSO control,[4],significantly reduced
same,value determined from the microdilution method,[5],0.25 µg/ml and 360 nM
